Legend:
[1] = test system: hypertrigliceridaemia from olive oil in the rats; assay: Hypertriglyceridaemia from olive oil in the rat (serum lactescence); format: in vivo; conditions: dose 2 mM/kg/os
Method: The method described by Zucker I.H. (Sci. Anal. Lab. 24, 114, 1972) has been followed.
Male rats have been used, whose body weight was 150-200 g. The animals were without eating with water "ad libitum" and all this beginning 24 hours before the experiment. The hyperlipaemia was induced by the administration of olive oil by mouth; its composition as to the fat acids was as follows: palmitic acid 10% palmitoleic acid 1%, stearic acid 3%, […] and linoleic acid 7% (all percentages are by weight). The quantity of olive oil administered, by means of a gastric probe, was 10 ml/kg. The treatments were made by finely pounding with a china mortar and by suspending in the olive oil the examined compounds. […] The positive control animals received only olive oil; moreover, there was also a group of negative control animals who received plain water in quantities of 10 ml/kg. Every three hours a group of rats (10) was killed in a light ethereal anaesthesia, in order to be able to appreciate the percentage of triglycerides in the blood. The animals were bled by cutting them the carotids and the blood was collected in plastic test-tubes, capacity 10 ml each, and was centrifuged for ten minutes at 3500 rpm. The evaluated parameter was the lactescence of the serum, which is directly proportional to the contents of kilomicrons and therefore of triglycerides (Zucker, see above the mention). The serum has been diluted 1:5 in a physiologic solution and was read at the spectrophotometer at […] against white (physiologic solution). From the individual optical Density (D.O.) data one could calculate for each group the average of the standard error. The statistical analysis was performed by means of the t of Dunnett.

[2] = test system: Hypercholesterolaemia caused by Trit WR1339 in the mouses; assay: Hypercholesterolaemia of the mouse caused by Triton WR 1339; format: in vivo; conditions: dose 2 mM/kg per os
Method: The method described by Garattini S. (Arzneim,Forsch 9, 206; 1959) with some modifications has been followed.
The mouses used have been males of 22 to 28 grams body weight, on an empty stomach but with water "ad libitum" since 12 hours. The hyperlipidaemia was induced by means of an intraperitoneum administration of […] of Triton WR 1339, with dosage 300 mg/kg in a physiological solution. The subject products were administered at the same time in clear plain water, always in a volume of […] by means of a gastric probe. The animals were sacrified after 20 hours, by cutting them the carotids. The blood was collected in some plastic test-tubes, and was centrifuged at 3500 rpm for ten minutes. Thereafter the total cholesterol (Sornay R and colleagues, Arzeneim Forsch, 26,885 1976) and the total lipids (Chonhelmer R and colleagues, Biological Chemistry 106, 745, 1934) were determined.

[3] = test system: Hypertriglyceridaemia caused by ethanole in the rats; assay: Hypertriglyceridaemia caused by ethanol in rats, activity at three dose levels; format: in vivo; conditions: rat
From the text: (§1) For this test group the methods described by Sistori C.R. and colleagues (Atherosclerosis 30, 45; 1978) is followed.
(§2) The hypertriglyceridaemia has been induced into the male rats having a body weight of 160 - 170 g by giving them to drink, for 4 consecutive days, a solution of 10% ethanole in water.

[4] = test system: Hypertriglyceridaemia caused by ethanole in the rats; assay: Hypertriglyceridaemia caused by ethanol in rats, duration of the effects; format: in vivo; conditions: rat, dose 1 mM/kg/os
From the text: as §1, §2
In order to perform the particular kinetics of the compound in accordance with the example 1 following the instant invention, it was considered appropriate, anyway, to evaluate the duration of the hypolipaemizing effect in comparison to that of the nicotinic acid.
A group of normal animals was treated with the vehicle only and did serve as a negative control group.

[5] = test system: aggregation of the platelets caused by the collagene; assay: Anti-aggregating ex vivo activity against collagen in the rat; conditions: rat, 1,00 mM/kg os for 4 days
Method: Six groups of 15 male rats of 200 - 250 g have been used.
The blood taken from the three rats of each group has been mixed and centrifuged during 6 minutes at 1400 rpm, at room temperature. After having taken the plasma full of platelets (PRP) the thereunder floating material has been centrifuged again (4000 rpm during 10 minutes) in order to have the plasma with few platelets (PPP) separated from the balance. The PRP has been diluted with a part of PPP in order to bring the number of platelets to 350 ± 50 x 10³/mm³. The aggregation has been evaluated in accordance with the method of Minsker D.H. and coll. (J. Pharmacol.Exp.Ther. 210 37 1979) by using an ELVI 840 two-channels aggregometer and an Omniscribe recorder B.500. A quantity of 0,25 ml PRP has been used, transferred into the aggregometer for two minutes at 37°C and stirred at 1000 rpm. The light intensity was arranged in such a way, to obtain 0% transmittance with the PRP and 100% with the PPP. After 2′ incubation, by means of microsyringe the collagene was added to the PRP in a volume quantity of 5 mcl with the final concentration of 4 mcg/ml.
From the aggregation trace of the recorder the following data have been evaluated: • a) latent time of the aggregation (seconds between the introductions of collagene and the starting of the aggregation) • b) transmittance increase percentage (maximum aggregation). The same proceeding was repeated for all animals, always by mixing the blood of three rats belonging to the same group and by obtaining in this manner five aggregation curves per group.

[6] = test system: Central artery of a rabbit's ear; assay: In vitro antispastic action, adrenalin-induced spasm of the perfused isolated artery; conditions: for % inhibi-tions of the con-tractions: spasm induced by Adrenalin, n=4
Method: An "in vitro" method has been used, according to which the withdrawal of the central artery of a rabbit's ear with the relevant nervous connections and the equipment of an appropriate seat for secluded organs was designed (Fleckenstein A., British Journal of Pharmacology 7, 533, 1952).
On the artery they did install a three-ways tube, connected with a peristaltic pump and with a mercury manometer to record the perfusion pressure. The artery was perfused with a rebs liquid at the speed of 2,5 ml/minute. The contractions were induced by injecting into the vessel 0,1 ml adrenalin at the concentration of 1 mcg/ml. The compound according to the example 1 has been added to the bath at concentrations of 0,5 - 1 - 2 uM, five minutes before the adrenalin (four preparations per concentration). As comparison drugs, chlorhydra ted Buflomedil and Papaverin have been used. The activity of the material under investigation has been appreciated in terms of percentages referring to the concentration induced by the Adrenalin (and expressed with DE₅₀) and the relevant forbidding.

[7] = test system: skin temperature of the mouse's paw; assay: Peripheral vessel-dilating activity in the mouse (skin temperature of hind paws); format: in vivo; conditions: for Temperature (°C) of the hind paws (n=10): intravenous, dose 0,030 mM/kg/iv; for Temperature (°C) of the hind paws: oral, dose 0,500 mM/kg/os
Method: The method of Richter W. (Acta Pharm. Toxicol. 21, 91; 1974) was used; it consists in determining, at fixed time intervals after the treatment, the skin temperature of the mouse's paw, by keeping the animals in rooms at a constant temperature of 21°C.
Some groups of ten male mouses each have been used; the weight of each animal was 30 g approximately.
The compound according to the Example 1 has been tested "per os" at three basic levels of the doses (0,125 - 0,25 - 0,5 mM/kg) and by intravenous injection at two dose levels (0,015 and 0,03 mM/kg), in comparison with one sole dose of Papaverin and chlorhydrated Buflomedil (0,5 mM/kg "per os" and 0,03m M/kg intravenous). The observation of the skin temperature at the mouse's paw was made before the treatment, 30, 60 and 120 minutes after the "per os" treatment, […] (A-Hl Ellab) connected with an Ellab electric recorder. Of each animal the temperature of both hind paws has been measured, and the values obtained have been averaged .

red cells in the rat [8] = assay: Red cell adhesivity / filtration, Teitel method; format: in vivo
From the text: (§3) steresis (Teiltel P.: Nouv. Rev. Franç. Hématol. 7, 195, 1967). Any alteration, almost undoubtely at the level of the red cell's membrane, cause some damaging variations of the red cell's elasticity thus making more difficult the passing through the capillary vessels having more reduced diameter, and therefore increasing the flow resistance in the peripheral vessels systems. In order to determine the effect caused by the compound according to the Example 1, on these features of the red cell, the method described by Schmidt, Schonbein and colleagues (Blut 26, 369, 1973) has been used.
(§4) In the circulatory flow, the above mentioned capillary vessels being excluded, the blood cells do normally circulate being attached between each other because of their adhesiveness. In order to study this adhesion force, the above mentioned Teitel method has been used. Male rats of 150 g body weight approximately have been employed, and they have been treated for three consecutive days with 0,5 mM/kg/os of the compound according to the Example 1, or otherwise Buflomedil, or even Pentosiphillin used as comparison substance. After the last treatment the animals, without eating from 18 hours, have been killed in a light ethereal anaesthesy and the blood was collected over an 0,2 molar EDTA (9 and 1 volumes respectively). The red cells filtering possibility, measured with the Teitel method, wherein the quantity of red cells passing, in high haematocritical conditions, through a paper filter with holes of 20-40 µm in a previously determined time, has been ascertained as follows: the blood was centrifuged for ten minutes at 2000 rpm in order to obtain the massing of the red cells, two ml of the blood collected as above were put into an upside down turned cone made with filtering paper, being previously wetted with a physiological solution. The volume passing through the filter in 2 - 4 - 8 and 16 minutes is then measured. The average filtration time T 1/2 is reckoned on semi-logarithmic paper by putting on the abscissae the logarithm of the time, and on the ordinates the percentage of blood filtered. In order to follow the Schmidt Schönbein method, the here after described proceeding has been performed: 0,2 ml of a suspension of red cells at 2% obtained by diluting the blood with the autological plasma, then it was placed into an appropriate device permitting to filter this blood through a filter (millipores) of 5 µm mashes at a filtration pressure of 50 mm water. With a chronometer one determines the time required for the passage of the whole sample through the filter.
At time same time, one measures, in the same conditions, the same parameter for a plasma sample. One calculates then the relative filtration time by dividing the time required to filter the diluted blood sample by the time being necessary to filter the plasma sample. For each group the average and the standard error of the individual data obtained was reckoned. The statistical evaluation was obtained by means of the Dunnett test.

red cells in the rat [9] = assay: Red cell deformability / filtration, Schmidt-Schönbein method; format: in vivo; conditions: dose 3 x 0,5 mM/kg/os
From the text: as §3
as §4, with “The average filtration time T 1/2 is reckoned on semi-logarithmic paper by putting on the abscissae the logarithm of the time, and on the ordinates the percentage of blood filtered. In order to follow the Schmidt Schönbein method, the here after described proceeding has been performed: 0,2 ml of a suspension of red cells at 2% obtained by diluting the blood with the autological plasma, then it was placed into an appropriate device permitting to filter this blood through a filter (millipores) of 5 µm mashes at a filtration pressure of 50 mm water. With a chronometer one determines the time required for the passage of the whole sample through the filter.” left out

[10] = 20 hours after Triton WR 1339 i.p.
[11] = PRP 2 hours after last treatment, collagene 4 mcg/ml
[12] = 0 minutes (before the treatment)

O=C(O)c1cccnc1 [Nicotinic acid, nicotinic acid]
Serum opt.density at the indicated times (M ± E.S.) ([1]; 3 h): 258 ± 14,9
Serum opt.density at the indicated times (M ± E.S.) ([1]; 6 h): 1312 ± 58,2
Serum opt.density at the indicated times (M ± E.S.) ([1]; 9 h): 1161 ± 53,2
Serum opt.density at the indicated times (M ± E.S.) ([1]; 12 h): 1000 ± 31,3
Serum opt.density at the indicated times (M ± E.S.) ([1]; 15 h): 510 ± 18,4
Serum opt.density at the indicated times (M ± E.S.) ([1]; 18 h): 250 ± 21,4
Tot.Cholesterol M ± E.S. [2, 10]: 215 ± 16 mg/100 ml
Tot.Lipids M ± E.S. [2, 10]: 1643 ± 131 mg/100 ml
Tot.Cholesterol % vs contr. ([2]; reduction): 39,9%
Tot.Lipids % vs contr. ([2]; reduction): 32,5%
Triglycerids M ± E.S. ([3]; dose 1,0 mM/kg/os once a day for 4 days, 4 hours after last treatment): 156,4 ± 18,1 mg/100 ml
Triglycerids % vs contr. positivi ([3]; dose 1,0 mM/kg/os, 4 hours after treatment): -24,7%
decrease (of triglycerides vs positive controls) ([3]; dose of 1 mM/kg per os): 24,7%
% variation vs positive controls (Trigliceridi) ([4]; 4 h): -29,4%
Trigliceridi ([4]; 4 h from the last treatment): 181,6 ± 15,7 mg/100 ml
% variation vs positive controls (Trigliceridi) ([4]; 6 h): -25,5%
Trigliceridi ([4]; 6 h from the last treatment): 176,0 ± 11,2 mg/100 ml
% variation vs positive controls (Trigliceridi) ([4]; 12 h): -10,3%
Trigliceridi ([4]; 12 h from the last treatment): 184,6 ± 8,9 mg/100 ml
% variation vs positive controls (Trigliceridi) ([4]; 16 h): -3,1%
Trigliceridi ([4]; 16 h from the last treatment): 180,7 ± 14,5 mg/100 ml
% variation vs positive controls (Trigliceridi) ([4]; 24 h): +7,9%
Trigliceridi ([4]; 24 h from the last treatment): 178,4 ± 9,7 mg/100 ml
Latency time, % variation vs controls [5]: +8,0%
Transmittance percentage, % variation vs controls [5]: -13,0%
Latency time (sec.) [5, 11]: 40,5 ± 4,0 sec.
Transmittance percentage (maximum aggregation) [5, 11]: 68,4 ± 5,2%

COc1ccc(Cc2nccc3cc(OC)c(OC)cc23)cc1OC [Papaverin, reference compound]
EC50 ([6]; Oryctolagus cuniculus, read-out: DE50): 760 nM
% inhibi-tions of the con-tractions ([6]; concentration 0,5 μ M): 33%
% inhibi-tions of the con-tractions ([6]; concentration 1,0 μ M): 64%
% inhibi-tions of the con-tractions ([6]; concentration 2,0 μ M): 81%
Temperature (°C) of the hind paws (n=10) [7, 12]: 24,5 ± 0,28 °C
Temperature (°C) of the hind paws (n=10) ([7]; 30 minutes from the treatment): 26,6 ± 0,25 °C
Temperature (°C) of the hind paws (n=10) ([7]; 60 minutes from the treatment): 25,7 ± 0,20 °C
Temperature (°C) of the hind paws (n=10) ([7]; 120 minutes from the treatment): 25,5 ± 0,23 °C
Temperature (°C) of the hind paws [7, 12]: 24,8 ± 0,35 °C
Temperature (°C) of the hind paws ([7]; 30 minutes from the treatment): 25,5 ± 0,21 °C
Temperature (°C) of the hind paws ([7]; 60 minutes from the treatment): 25,9 ± 0,25 °C
Temperature (°C) of the hind paws ([7]; 120 minutes from the treatment): 25,1 ± 0,30 °C

CC(=O)CCCCn1c(=O)c2c(ncn2C)n(C)c1=O [pentossifillin]
Teitel method Δ % vs contr. (red cells in the rat [8]; dose 3 x 0,5 mM/kg/os): 40,1%
Teitel method T1/2 min. M ± E.S. (red cells in the rat [8]; dose 3 x 0,5 mM/kg/os (three consecutive days)): 2,18 ± 0,19 min.
Schmidt-Schönbein method Δ % vs contr. (red cells in the rat [9]): 52,8%

Source: patent EP0470323A2, “New salts of the nicotinic acid with aminobenzylic compounds and their pharmaceutical use” (BROMLEY LIMITED, priority 1990, dated 1992)
